Experimental data: ChEMBL document CHEMBL4411307, “N,N'-diaryl-bishydrazones in a biphenyl platform: Broad spectrum antifungal agents” (Eur J Med Chem, 2019)
Converted amounts (≈) assume the structure as drawn. The source made the active and inactive calls. No cut-off for these calls is given here.

Experiments:
Candida albicans [1] = experiment: Antifungal activity against fluconazole/ITC-resistant Candida albicans ATCC MYA-1237 measured after 48 hrs by CLSI M27-A3 protocol based method; format: functional; conditions: ATCC MYA-1237, 48 h
[2] = Hemolytic activity in mouse RBC at 62.5 ug/ml after 1 hr relative to control; format: ADME, cell-based, Erythrocyte; conditions: red blood cells (erythrocytes), read-out: Activity
Nakaseomyces glabratus = experiment: Antifungal activity against Candida glabrata ATCC 2001 measured after 48 hrs by CLSI M27-A3 protocol based method; format: functional; conditions: CBS 138, 48 h
[3] = Selectivity index, ratio of CC50 for human A549 cells to MIC for fluconazole/ITC-resistant Candida albicans ATCC MYA-1003; format: toxicity; conditions: read-out: Selectivity Index
BEAS-2B = experiment: Cytotoxicity against human BEAS2B cells after 24 hrs by resazurin based assay; format: cell-based
[4] = Selectivity index, ratio of CC50 for human A549 cells to MIC for Aspergillus nidulans ATCC 38163; format: toxicity; conditions: read-out: Selectivity Index
[5] = Selectivity index, ratio of compound concentration showing <25% hemolysis in mouse RBC to MIC for Candida parapsilosis ATCC 22019; format: toxicity; conditions: mouse red blood cells (RBC), read-out: Selectivity Index
Candida albicans [6] = experiment: Antifungal activity against fluconazole/ITC-resistant Candida albicans ATCC 64124 measured after 48 hrs by CLSI M27-A3 protocol based method; format: functional; conditions: ATCC 64124, 48 h
[7] = Selectivity index, ratio of compound concentration showing <25% hemolysis in mouse RBC to MIC for Aspergillus flavus ATCC MYA-3631; format: toxicity; conditions: mouse red blood cells (RBC), read-out: Selectivity Index
Aspergillus nidulans = experiment: Antifungal activity against Aspergillus nidulans ATCC 38163 measured after 48 hrs by CLSI M38-A2 protocol based method; format: functional; conditions: ATCC 38163, 48 h
[8] = Selectivity index, ratio of CC50 for human A549 cells to MIC for fluconazole/ITC-susceptible Candida albicans ATCC MYA-2876; format: toxicity; conditions: read-out: Selectivity Index
Candida albicans [9] = experiment: Antifungal activity against fluconazole/ITC-susceptible Candida albicans ATCC MYA-2310 measured after 48 hrs by CLSI M27-A3 protocol based method; format: functional; conditions: ATCC MYA-2310, 48 h
Listeria monocytogenes = experiment: Antibacterial activity against Listeria monocytogenes; format: functional, organism-based
[10] = Selectivity index, ratio of compound concentration showing <25% hemolysis in mouse RBC to MIC for Aspergillus nidulans ATCC 38163; format: toxicity; conditions: mouse red blood cells (RBC), read-out: Selectivity Index
Candida albicans [11] = experiment: Antifungal activity against fluconazole/ITC-resistant Candida albicans ATCC MYA-1003 measured after 48 hrs by CLSI M27-A3 protocol based method; format: functional; conditions: ATCC MYA-1003, 48 h
[12] = Selectivity index, ratio of CC50 for human A549 cells to MIC for Aspergillus flavus ATCC MYA-3631; format: toxicity; conditions: read-out: Selectivity Index
[13] = Selectivity index, ratio of compound concentration showing <25% hemolysis in mouse RBC to MIC for Candida krusei ATCC 6258; format: toxicity; conditions: mouse red blood cells (RBC), read-out: Selectivity Index
[14] = Selectivity index, ratio of CC50 for human A549 cells to MIC for fluconazole/ITC-susceptible Candida albicans ATCC MYA-2310; format: toxicity; conditions: read-out: Selectivity Index
[15] = Hemolytic activity in mouse RBC at 3.9 ug/ml after 1 hr relative to control; format: ADME, cell-based, Erythrocyte; conditions: red blood cells (erythrocytes), read-out: Activity
Candida albicans [16] = experiment: Antifungal activity against fluconazole/ITC-susceptible Candida albicans ATCC MYA-2876 measured after 48 hrs by CLSI M27-A3 protocol based method; format: functional; conditions: ATCC MYA-2876, 48 h
[17] = Selectivity index, ratio of compound concentration showing <25% hemolysis in mouse RBC to MIC for Aspergillus terreus ATCC MYA-3633; format: toxicity; conditions: mouse red blood cells (RBC), read-out: Selectivity Index
[18] = Hemolytic activity in mouse RBC at 1.95 ug/ml after 1 hr relative to control; format: ADME, cell-based, Erythrocyte; conditions: red blood cells (erythrocytes), read-out: Activity
[19] = Selectivity index, ratio of CC50 for human A549 cells to MIC for fluconazole/ITC-resistant Candida albicans ATCC 90819; format: toxicity; conditions: read-out: Selectivity Index
[20] = Selectivity index, ratio of compound concentration showing <25% hemolysis in mouse RBC to MIC for fluconazole/ITC-resistant Candida albicans ATCC 90819; format: toxicity; conditions: mouse red blood cells (RBC), read-out: Selectivity Index
[21] = Selectivity index, ratio of CC50 for human A549 cells to MIC for fluconazole/ITC-resistant Candida albicans ATCC 64124; format: toxicity; conditions: read-out: Selectivity Index
[22] = Selectivity index, ratio of compound concentration showing <25% hemolysis in mouse RBC to MIC for fluconazole/ITC-resistant Candida albicans ATCC MYA-1237; format: toxicity; conditions: mouse red blood cells (RBC), read-out: Selectivity Index
Candida parapsilosis = experiment: Antifungal activity against Candida parapsilosis ATCC 22019 measured after 48 hrs by CLSI M27-A3 protocol based method; format: functional; conditions: Lodderomyces parapsilosis, ATCC 22019, 48 h
Aspergillus terreus = experiment: Antifungal activity against Aspergillus terreus ATCC MYA-3633 measured after 48 hrs by CLSI M38-A2 protocol based method; format: functional; conditions: ATCC MYA-3633, 48 h
[23] = Selectivity index, ratio of compound concentration showing <25% hemolysis in mouse RBC to MIC for fluconazole/ITC-resistant Candida albicans ATCC 10231; format: toxicity; conditions: mouse red blood cells (RBC), read-out: Selectivity Index
[24] = Selectivity index, ratio of compound concentration showing <25% hemolysis in mouse RBC to MIC for fluconazole/ITC-susceptible Candida albicans ATCC MYA-2876; format: toxicity; conditions: mouse red blood cells (RBC), read-out: Selectivity Index
[25] = Selectivity index, ratio of CC50 for human A549 cells to MIC for Aspergillus terreus ATCC MYA-3633; format: toxicity; conditions: read-out: Selectivity Index
Candida albicans [26] = experiment: Antifungal activity against fluconazole/ITC-resistant Candida albicans ATCC 10231 measured after 48 hrs by CLSI M27-A3 protocol based method; format: functional; conditions: ATCC 10231, 48 h
[27] = Selectivity index, ratio of CC50 for human A549 cells to MIC for Candida parapsilosis ATCC 22019; format: toxicity; conditions: read-out: Selectivity Index
Staphylococcus aureus = experiment: Antibacterial activity against methicillin-resistant Staphylococcus aureus; format: functional, organism-based
[28] = Selectivity index, ratio of compound concentration showing <25% hemolysis in mouse RBC to MIC for fluconazole/ITC-resistant Candida albicans ATCC MYA-1003; format: toxicity; conditions: mouse red blood cells (RBC), read-out: Selectivity Index
[29] = Selectivity index, ratio of CC50 for human A549 cells to MIC for Candida glabrata ATCC 2001; format: toxicity; conditions: read-out: Selectivity Index
[30] = Hemolytic activity in mouse RBC at 31.3 ug/ml after 1 hr relative to control; format: ADME, cell-based, Erythrocyte; conditions: red blood cells (erythrocytes), read-out: Activity
[31] = Hemolytic activity in mouse RBC at […] ug/ml after 1 hr relative to control; format: ADME, cell-based, Erythrocyte; conditions: red blood cells (erythrocytes), read-out: Activity
Pichia kudriavzevii = experiment: Antifungal activity against Candida krusei ATCC 6258 measured after 48 hrs by CLSI M27-A3 protocol based method; format: functional; conditions: ATCC 6258, 48 h
Aspergillus flavus = experiment: Antifungal activity against Aspergillus flavus ATCC MYA-3631 measured after 48 hrs by CLSI M38-A2 protocol based method; format: functional; conditions: ATCC MYA-3631, 48 h
[32] = Selectivity index, ratio of compound concentration showing <25% hemolysis in mouse RBC to MIC for fluconazole/ITC-resistant Candida albicans ATCC 64124; format: toxicity; conditions: mouse red blood cells (RBC), read-out: Selectivity Index
[33] = Hemolytic activity in mouse RBC at 7.8 ug/ml after 1 hr relative to control; format: ADME, cell-based, Erythrocyte; conditions: red blood cells (erythrocytes), read-out: Activity
[34] = Selectivity index, ratio of CC50 for human A549 cells to MIC for Candida krusei ATCC 6258; format: toxicity; conditions: read-out: Selectivity Index
[35] = Selectivity index, ratio of compound concentration showing <25% hemolysis in mouse RBC to MIC for Candida glabrata ATCC 2001; format: toxicity; conditions: mouse red blood cells (RBC), read-out: Selectivity Index
A549 = experiment: Cytotoxicity against human A549 cells after 24 hrs by resazurin based assay; format: cell-based; conditions: a549, 24 h
[36] = Selectivity index, ratio of CC50 for human A549 cells to MIC for fluconazole/ITC-resistant Candida albicans ATCC MYA-1237; format: toxicity; conditions: read-out: Selectivity Index
[37] = Selectivity index, ratio of CC50 for human A549 cells to MIC for fluconazole/ITC-resistant Candida albicans ATCC 10231; format: toxicity; conditions: read-out: Selectivity Index
[38] = Hemolytic activity in mouse RBC at […] after 1 hr relative to control; format: ADME, cell-based, Erythrocyte; conditions: red blood cells (erythrocytes), read-out: Activity; note: tested at 0.48 µg/mL
[39] = Selectivity index, ratio of compound concentration showing <25% hemolysis in mouse RBC to MIC for fluconazole/ITC-susceptible Candida albicans ATCC MYA-2310; format: toxicity; conditions: mouse red blood cells (RBC), read-out: Selectivity Index
Enterococcus = experiment: Antibacterial activity against vancomycin-resistant Enterococcus; format: functional, organism-based
Candida albicans [40] = experiment: Antifungal activity against fluconazole/ITC-resistant Candida albicans ATCC 90819 measured after 48 hrs by CLSI M27-A3 protocol based method; format: functional; conditions: ATCC 90819, 48 h

Fc1ccc(N/N=C/c2ccc(-c3cccc(/C=N/Nc4ccc(F)cc4F)c3)cc2)c(F)c1
MIC (Candida albicans [1]): 7.8 µg/mL (≈ 16.9 µM) | hemolysis at 1 h, 62.5 ug/ml [2]: 23.5% | MIC (Nakaseomyces glabratus): 15.6 µg/mL (≈ 33.7 µM) | selectivity ratio [3]: 2.1 | CC50 (BEAS-2B): 16.9 µg/mL (≈ 36.5 µM) | selectivity ratio [4]: 2.1 | selectivity ratio [5]: 1 to 32 | MIC (Candida albicans [6]): 7.8 µg/mL (≈ 16.9 µM) | selectivity ratio [7]: 1 to 32 | MIC (Aspergillus nidulans): 7.8 µg/mL (≈ 16.9 µM) | selectivity ratio [8]: 1.1 | MIC (Candida albicans [9]): 15.6 µg/mL (≈ 33.7 µM) | Activity (Listeria monocytogenes): inactive | selectivity ratio [10]: 1 to 32 | MIC (Candida albicans [11]): 7.8 µg/mL (≈ 16.9 µM) | selectivity ratio [12]: 2.1 | selectivity ratio [13]: 1 to 32 | selectivity ratio [14]: 1.1 | hemolysis at 1 h, 3.9 ug/ml [15]: 4.2% | MIC (Candida albicans [16]): 15.6 µg/mL (≈ 33.7 µM) | selectivity ratio [17]: 1 to 32 | hemolysis at 1 h, 1.95 ug/ml [18]: 4.5% | selectivity ratio [19]: 1.1 | selectivity ratio [20]: 1 to 32 | selectivity ratio [21]: 2.1 | selectivity ratio [22]: 1 to 32 | MIC (Candida parapsilosis): 31.3 µg/mL (≈ 67.7 µM) | MIC (Aspergillus terreus): 31.3 µg/mL (≈ 67.7 µM) | selectivity ratio [23]: 1 to 32 | selectivity ratio [24]: 1 to 32 | selectivity ratio [25]: 0.5 | MIC (Candida albicans [26]): 3.9 µg/mL (≈ 8.43 µM) | selectivity ratio [27]: 0.5 | Activity (Staphylococcus aureus): inactive | selectivity ratio [28]: 1 to 32 | selectivity ratio [29]: 1.1 | hemolysis at 1 h, 31.3 ug/ml [30]: 14.6% | hemolysis at 1 h, 15.6 ug/ml ([31]; at 15.6 µg/mL): 14.6% | hemolysis at 1 h, 0.975 ug/ml [31]: 0% | MIC (Pichia kudriavzevii): 1.95 µg/mL (≈ 4.22 µM) | MIC (Aspergillus flavus): 7.8 µg/mL (≈ 16.9 µM) | selectivity ratio [32]: 1 to 32 | hemolysis at 1 h, 7.8 ug/ml [33]: 8.6% | selectivity ratio [34]: 8.4 | selectivity ratio [35]: 1 to 32 | CC50 (A549): 16.4 µg/mL (≈ 35.5 µM) | selectivity ratio [36]: 2.1 | selectivity ratio [37]: 4.2 | hemolysis at 1 h, […] [38]: 1.6% | selectivity ratio [39]: 1 to 32 | Activity (Enterococcus): inactive | MIC (Candida albicans [40]): 15.6 µg/mL (≈ 33.7 µM)
